Key:
A549 cells = assay: Cell viability assay (CellTiter-Blue); assay type: cell-based, human; conditions: up to 5 μM, 72 h incubation
Procedure: 5 × 10^3 A549 cells were seeded into 96-well plates. The following day, the indicated final concentrations of JYQ-164 and JYQ-173 were added to the cells, and DMSO was used as a control. Inhibitors were renewed at 36 h, and cells were incubated with them an additional 36 h. Cell viability was measured using the CellTiter-Blue viability assay (Promega). Relative survival was normalized to the DMSO-treated sample and corrected for background signal. page 8: Figure S6. Cytotoxicity assay for JYQ-164 and JYQ-173 in A549 cells. ( A) PARK7 engagement of JYQ -164 and JYQ-173 in A459 cells. A549 cells were incubated with […] The reactions were stopped by addition of NuPAGE™ LDS sample buffer (4x) , followed by cell lysis, SDS-PAGE, fluorescence scanning, and immunoblott in g against PARK7 and β-actin. β-actin was used as a loading control. (B) A549 cells were incubated with indicated concentration of JYQ-164 (left panel) or JYQ-173 (right panel) for 72 h where the inhibitors were renewed after 36 h. Cell viability was measured using the CellTiter-Blue assay. Relative viability was normalized to untreated control and corrected for background signal. S8 (1 picture or pasted object on this page, not shown here)

[1] = test system: other proteins of A549 cells; assay: TMT-based global proteomic profiling in A549 cells, other proteins; assay type: cell-based, Homo sapiens; conditions: A549 cells, 5 μM, 8 h
Procedure: A549 cells were seeded into 10 cm plates in 10 mL of media. […] Cells were lysed using a 5% SDS lysis buffer (100 mM Tris-HCl, pH 7.6) and were incubated at 95 °C for 4 min. Protein determination was performed using the Pierce BCA Gold protein assay. 100 μg of protein of each sample was reduced and alkylated, and excess iodoacetamide was quenched using 5 mM TCEP, 15 mM iodoacetamide, and 10 mM DTT, respectively. The protein was pelleted down using chloroform/methanol precipitation, and the resulting pellets were resolubilized in 40 mM HEPES pH 8.4. […] The Pierce BCA Gold protein assay was used to determine the peptide concentration. The peptides were labeled with TMTpro Label Reagents in a 1:4 ratio by mass (peptides/TMT reagents) for 1 h at RT. Five μL of 6% hydroxylamine was added to quench excess TMT reagent and incubated for 15 min at RT. Samples were pooled and lyophilized. The sample was subsequently fractionated on an Agilent 1200 series HPLC system (Agilent Technologies). 75 μg of the pooled sample was dissolved in solvent A (10 mM NH4HCO3, pH 8.4), injected onto, and eluted from an Agilent Eclipse Plus C18 2.1 × 150 mm 3.5 μm column (Agilent Technologies). The gradient was run from 2 to 90% solvent B (10 mM NH4HCO3, pH 8.4 final concentration, 20/80 water/acetonitrile v/v) in 30 min at a flow rate of 200 μL/min. Twelve fractions were made; every 30 s a fraction was collected in a vial, and the eluate of the next 30 s was collected in the next vial and so on until it loops back to the first vial (5 loops of 6 min each). Afterward, the samples were lyophilized.
2.2.07 (www.matrixscience.com) for protein identification. Mascot searches were with 10 ppm and 0.02 Da deviation for precursor and fragment mass, respectively. Enzyme specificity was set to trypsin. Up to two missed cleavages were allowed. Methionine oxidation and acetyl on protein N-terminus were set as variable modifications. Carbamidomethyl on Cys and TMTpro on Lys and N-terminus were set as fixed modifications. Protein FDR of 1% was set. Normalization was on total peptide amount. The values for each TMT channel were normalized to the average of the values for the DMSO samples for the same peptide, and these values were named FC. The log2 FC values of all replicates for the same master protein were averaged to give the “Average log2 FC”. A one-sample t test was performed against the null hypothesis of log2 FC = 0, and the resulting −log10p values were reported for each protein. The volcano plot was plotted using GraphPad Prism v.9.01.

## N#CN1CC[C@@H](C(=O)Nc2nc3c(s2)CN(C(=O)c2cc(-n4ccnn4)ccc2F)CC3)C1 [Compound 84, (R)-1-Cyano-N-(5-(2-fluoro-5-(1H-1,2,3-triazol-1-yl)benzoyl)-4,5,6,7-tetrahydrothiazolo[5,4-c]pyridin-2-yl)pyrrolidine-3-carboxamide]
A549 cells
  cytotoxicity: did not show any cytotoxicity
[1]
  DOP1B protein level (total proteome profiling): downregulated

Source: PMC11129182, “Development of Inhibitors, Probes, and PROTAC Provides a Complete Toolbox to Study PARK7 in the Living Cell” (Journal of Medicinal Chemistry, 2024)
